Laboratory results reported in ChEMBL document CHEMBL1862790, “Optimisation of fenarimol series for the treatment of Chagas disease”.
Several values for one entry are separate records, joined by “and”; a condition that tells them apart may be missing. Identical values can stand only once.

Columns and labels:
[1] = test system: Trypanosoma cruzi; assay: microbe, parasite or virus in culture; format: functional, organism-based, Tulahuen LacZ, Clone C4
[2] = (§1) DNDI: Cytotoxicity against L-6 rat myoblasts from skeletal muscle cells; conditions: L6 rat skeletal muscle myoblast cells, IC50
[3] = test system: L6; assay: as §1; conditions: L6 rat skeletal muscle myoblast cells
[4] = test system: Trypanosoma cruzi; assay: microbe, parasite or virus in culture; format: functional, Tulahuen LacZ, Clone C4
[5] = Trypanosoma cruzi, Tulahuen LacZ, Clone C4

Row | Structure (SMILES) | IC50 [1] | IC50 [1, 5] [nM] | IC50 [2] [nM] | IC50 [3] [nM] | IC90 [4] [nM] | IC90 [4, 5] [nM]
1 | O=C(NC1CCN(C(c2ccc(C(F)(F)F)cc2)c2cccnc2)CC1)c1c(F)cccc1F (stereo unspecified) | 8.5 nM | 16.5 | 56700 | > 100000 | 37 | 24
2 | Fc1cc(Cl)ccc1C(NC1CCN(c2ccc(C(F)(F)F)cc2F)CC1)c1cccnc1 (stereo unspecified) | 8 nM and 16.5 nM |  | 51500 | 53000 | 31.5 | 24
